Laboratory results as given in patent US20090281099A1, “SUBSTITUTED PYRAZINONE DERIVATIVES FOR USE AS A MEDICINE” (priority 2006, published 2009).

Key:
hα2C receptor = target: T1, hα2C receptor (Homo sapiens, UniProt P18825); assay: Radioligand binding experiment for α2C-adrenoceptor ([3H]-raulwolscine, CHO cell membranes); details: [3H]raulwolscine 1 nM, membranes of CHO cells transfected with human α2C receptor; read-out: h-α2C pIC50 (converted)
T1 construct: expressed in transfected cells
T1 sequence (P18825 1-462): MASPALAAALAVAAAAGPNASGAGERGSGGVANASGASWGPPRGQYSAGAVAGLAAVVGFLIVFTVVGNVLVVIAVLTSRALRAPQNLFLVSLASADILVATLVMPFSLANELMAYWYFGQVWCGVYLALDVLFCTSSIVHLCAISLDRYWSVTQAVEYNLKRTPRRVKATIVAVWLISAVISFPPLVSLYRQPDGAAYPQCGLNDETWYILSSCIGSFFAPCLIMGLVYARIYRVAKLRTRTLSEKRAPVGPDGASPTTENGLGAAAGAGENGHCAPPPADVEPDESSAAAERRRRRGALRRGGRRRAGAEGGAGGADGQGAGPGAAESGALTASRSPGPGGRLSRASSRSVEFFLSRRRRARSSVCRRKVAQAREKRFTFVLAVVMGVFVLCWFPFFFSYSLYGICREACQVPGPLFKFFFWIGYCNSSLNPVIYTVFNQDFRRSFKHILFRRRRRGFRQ

5HT-Transporter = target: T2, 5HT-Transporter (Homo sapiens, UniProt P31645); assay: Binding experiment for the 5HT-transporter ([3H]paroxetine, human platelet membranes); details: [3H]paroxetine 0.5 nM, read-out: h-5HTT pIC50 (converted)
T2 construct: Human platelet membranes (Oceanix Biosciences Corporation, Hanover, Md., USA) were thawed; tissue Oceanix Biosciences Corporation; host or cells: human platelet membranes

hα2A receptor = target: T3, hα2A receptor (Homo sapiens, UniProt P08913); assay: Radioligand binding experiment for hα2A receptor ([3H]-raulwolscine, CHO cell membranes); details: [3H]raulwolscine 1 nM, membranes of CHO cells transfected with human α2A receptor; read-out: h-α2A pIC50 (converted)
T3 construct: expressed in transfected cells
T3 sequence (P08913 1-465): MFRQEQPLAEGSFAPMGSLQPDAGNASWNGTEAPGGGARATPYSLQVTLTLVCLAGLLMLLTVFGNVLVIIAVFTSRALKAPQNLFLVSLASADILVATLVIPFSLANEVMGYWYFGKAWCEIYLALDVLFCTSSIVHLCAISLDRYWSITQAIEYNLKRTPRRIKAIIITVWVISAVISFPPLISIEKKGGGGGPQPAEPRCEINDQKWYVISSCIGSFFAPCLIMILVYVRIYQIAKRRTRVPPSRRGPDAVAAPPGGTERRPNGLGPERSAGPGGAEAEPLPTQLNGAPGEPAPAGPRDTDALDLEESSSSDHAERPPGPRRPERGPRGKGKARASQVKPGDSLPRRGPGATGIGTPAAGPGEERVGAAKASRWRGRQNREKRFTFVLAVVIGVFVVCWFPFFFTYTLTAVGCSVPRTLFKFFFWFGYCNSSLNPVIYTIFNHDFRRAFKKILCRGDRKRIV

T2 sequence (P31645 whole entry): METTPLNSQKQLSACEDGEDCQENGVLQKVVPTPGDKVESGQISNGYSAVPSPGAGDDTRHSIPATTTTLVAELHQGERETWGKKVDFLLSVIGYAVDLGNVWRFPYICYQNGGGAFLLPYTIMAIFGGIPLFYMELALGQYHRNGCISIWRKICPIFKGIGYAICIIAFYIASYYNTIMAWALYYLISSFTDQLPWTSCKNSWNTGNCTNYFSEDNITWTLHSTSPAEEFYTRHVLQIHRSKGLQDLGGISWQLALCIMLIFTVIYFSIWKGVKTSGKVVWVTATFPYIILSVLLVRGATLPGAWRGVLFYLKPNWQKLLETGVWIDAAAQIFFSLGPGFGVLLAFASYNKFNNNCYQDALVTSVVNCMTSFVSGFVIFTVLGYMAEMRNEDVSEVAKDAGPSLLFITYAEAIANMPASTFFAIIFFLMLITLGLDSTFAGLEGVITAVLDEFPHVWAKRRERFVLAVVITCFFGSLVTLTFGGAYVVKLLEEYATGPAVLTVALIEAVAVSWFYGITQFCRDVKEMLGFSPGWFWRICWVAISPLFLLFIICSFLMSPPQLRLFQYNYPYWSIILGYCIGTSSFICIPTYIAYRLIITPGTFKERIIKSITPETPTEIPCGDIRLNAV

Row | SMILES | IC50 (hα2C receptor) | IC50 (5HT-Transporter) | IC50 (hα2A receptor)
1 | NCc1ccc(Cn2ccnc(N3CCN(CCOc4ccc(F)cc4)CC3)c2=O)cc1 [Compound 7-1] | 63.1 nM | 1.26 µM | 158 nM
2 | O=c1c(NC2CCN(CCOc3ccccc3)CC2)nccn1-c1cccc(N2CCC(N3CCCC3)CC2)c1 [Compound 2-9] | 1 nM | 6.31 µM | 7.94 nM
3 | O=C(Cn1ccnc(NC2CCN(CCOc3ccccc3)CC2)c1=O)N(CCN1CCCC1)Cc1ccccc1 [Compound 1-23] | 0.501 nM | – | 31.6 nM
4 | O=C1c2ccccc2C(=O)N1CC#CCn1ccnc(NC2CCN(CCOc3ccccc3)CC2)c1=O [Compound 2-16] | 7.94 nM | 1.26 µM | 501 nM
5 | O=c1c(NC2CCN(CCOc3ccccc3)CC2)nccn1CC1CCCCO1 (stereo not shown) [Compound 6-1] | 39.8 nM | > 10 µM | 501 nM
6 | O=C(Cn1ccnc(NC2CCN(CCOc3ccccc3)CC2)c1=O)NCC(c1ccccc1)c1ccccc1 [Compound 1-19] | 5.01 nM | 3.16 µM | 158 nM
7 | O=c1c(N2CCN(CCOc3ccc(F)cc3)CC2)nccn1Cc1ccc(-c2ccccc2)cc1 [Compound 11-6] | 251 nM | 1 µM | 316 nM
8 | O=c1c(N2CCN(CCOc3ccc(F)cc3)CC2)nccn1C/C=C/c1ccccc1 [Compound 11-4] | 200 nM | 1.58 µM | 251 nM
9 | O=c1c(N2CCN(CCOc3ccc(F)cc3)CC2)nccn1CC1CCCCC1 [Compound 13-3] | 251 nM | 7.94 µM | 501 nM
10 | O=C(Cn1ccnc(NC2CCN(CCOc3ccccc3)CC2)c1=O)Nc1ccccc1 [Compound 1-8] | 5.01 nM | 6.31 µM | 158 nM
11 | O=c1c(N2CCN(CCOc3ccc(F)cc3)CC2)nccn1Cc1ccc2ccccc2c1 [Compound 11-8] | 126 nM | 2 µM | 126 nM
12 | O=c1c(NC2CCN(CCOc3ccccc3)CC2)nccn1CCCn1c(=O)[nH]c2ccccc21 [Compound 2-17] | 1.26 nM | 3.16 µM | 126 nM
13 | O=c1c(NC2CCN(CCOc3ccccc3)CC2)nccn1-c1ccc(CN2CCCCC2)cc1 [Compound 2-5] | 1 nM | 3.98 µM | 100 nM
14 | O=C1c2ccccc2C(=O)N1CCCn1ccnc(NC2CCN(CCOc3ccccc3)CC2)c1=O [Compound 2-15] | 1.26 nM | 1 µM | 200 nM
15 | CN(C(=O)Cn1ccnc(NC2CCN(CCOc3ccccc3)CC2)c1=O)c1ccccc1 [Compound 1-9] | 3.16 nM | 3.98 µM | 100 nM
16 | COCCCn1ccnc(N2CCN(CCOc3ccc(F)cc3)CC2)c1=O [Compound 9-1] | 1000 nM | > 10 µM | 1260 nM
17 | O=c1c(NC2CCN(CCOc3ccccc3)CC2)nccn1CCN1CCCCC1 [Compound 2-1] | 2.51 nM | – | 100 nM
18 | O=c1c(NC2CCN(CCOc3ccccc3)CC2)nccn1Cc1ccc2ccccc2n1 [Compound 6-3] | 7.94 nM | 2.51 µM | 200 nM
19 | O=c1c(N2CCN(CCOc3ccc(F)cc3)CC2)nccn1CCOCc1ccccc1 [Compound 9-3] | 251 nM | 3.98 µM | 501 nM
20 | O=c1c(NC2CCN(CCOc3ccccc3)CC2)nccn1Cc1ccccc1Br [Compound 4-1] | 7.94 nM | 2.51 µM | 158 nM
21 | COCCn1ccnc(NC2CCN(CCOc3ccccc3)CC2)c1=O [Compound 3-1] | 50.1 nM | > 10 µM | 631 nM
22 | CN(C)CCn1ccnc(NC2CCN(CCOc3ccccc3)CC2)c1=O [Compound 1-3] | 20 nM | > 10 µM | 158 nM
23 | O=c1c(NC2CCN(CCOc3ccccc3)CC2)nccn1CCc1ccccc1 [Compound 4-4] | 15.8 nM | 6.31 µM | 158 nM
24 | O=C(Cn1ccnc(NC2CCN(CCOc3ccccc3)CC2)c1=O)N1CCC(Cc2ccccc2)CC1 [Compound 2-7] | 5.01 nM | 1 µM | 158 nM
25 | CN(C)CCCn1ccnc(NC2CCN(CCOc3ccccc3)CC2)c1=O [Compound 1-4] | 3.98 nM | > 10 µM | 200 nM

Row | SMILES | IC50 (hα2C receptor) | IC50 (5HT-Transporter) | IC50 (hα2A receptor)
26 | NCc1ccc(Cn2ccnc(NC3CCN(CCOc4ccccc4)CC3)c2=O)cc1 [Compound 1-2] | 1.58 nM | 7.94 µM | 15.8 nM
27 | O=c1c(NC2CCN(CCOc3ccccc3)CC2)nccn1-c1ccc(N2CCC(N3CCCC3)CC2)cc1 [Compound 2-10] | 7.94 nM | 3.16 µM | 126 nM
28 | O=c1c(N2CCN(CCOc3ccc(F)cc3)CC2)nccn1CC(c1ccccc1)c1ccccc1 [Compound 11-3] | 316 nM | 7.94 µM | 251 nM
29 | CCCn1ccnc(N2CCN(CCOc3ccc(F)cc3)CC2)c1=O [Compound 13-2] | 398 nM | > 10 µM | 631 nM
30 | O=c1c(NC2CCN(CCOc3ccccc3)CC2)nccn1Cc1ccc2ccccc2c1 [Compound 4-7] | 20 nM | 0.794 µM | 79.4 nM
31 | O=c1c(NC2CCN(CCOc3ccccc3)CC2)nccn1Cc1ccc(Br)cc1 [Compound 4-3] | 20 nM | 0.794 µM | 100 nM
32 | O=C(Cn1ccnc(NC2CCN(CCOc3ccccc3)CC2)c1=O)NCc1ccccc1 [Compound 1-11] | 6.31 nM | 7.94 µM | 251 nM
33 | O=c1c(N2CCN(CCOc3ccc(F)cc3)CC2)nccn1Cc1ccccc1 [Compound 11-1] | 200 nM | > 10 µM | 100 nM
34 | O=c1[nH]ccnc1N1CCN(CCOc2ccc(F)cc2)CC1 [Compound 13-1] | 251 nM | > 10 µM | 501 nM
35 | O=c1c(NC2CCN(CCOc3ccccc3)CC2)nccn1CCN1CCOCC1 [Compound 2-13] | 20 nM | > 10 µM | 631 nM
36 | Cc1nc(Cn2ccnc(N3CCN(CCOc4ccc(F)cc4)CC3)c2=O)cs1 [Compound 12-3] | 316 nM | > 10 µM | 251 nM
37 | O=C(Cn1ccnc(NC2CCN(CCOc3ccccc3)CC2)c1=O)N(CCN1CCCC1)Cc1ccc(F)cc1 [Compound 1-24] | 0.316 nM | 5.01 µM | 15.8 nM
38 | CN(CCc1ccccc1)C(=O)Cn1ccnc(NC2CCN(CCOc3ccccc3)CC2)c1=O [Compound 1-16] | 7.94 nM | > 10 µM | 200 nM
39 | O=C(Cn1ccnc(NC2CCN(CCOc3ccccc3)CC2)c1=O)NCc1ccc(F)cc1 [Compound 1-14] | 2.51 nM | 7.94 µM | 251 nM
40 | O=c1c(NC2CCN(CCOc3ccccc3)CC2)nccn1Cc1ccncc1 [Compound 6-2] | 39.8 nM | > 10 µM | 398 nM
41 | O=C(Cn1ccnc(NC2CCN(CCOc3ccccc3)CC2)c1=O)c1ccccc1 [Compound 4-6] | 10 nM | 5.01 µM | 39.8 nM
42 | NCCCn1ccnc(NC2CCN(CCOc3ccccc3)CC2)c1=O [Compound 1-1] | 7.94 nM | > 10 µM | 126 nM
43 | O=c1c(N2CCN(CCOc3ccc(F)cc3)CC2)nccn1CCCc1ccccc1 [Compound 11-2] | 631 nM | 2 µM | 251 nM
44 | O=C(Cn1ccnc(NC2CCN(CCOc3ccccc3)CC2)c1=O)NCCCc1ccccc1 [Compound 1-17] | 12.6 nM | 2.51 µM | 316 nM
45 | O=C(Cn1ccnc(NC2CCN(CCOc3ccccc3)CC2)c1=O)N1CCC(N2CCCC2)CC1 [Compound 2-8] | 2.51 nM | > 10 µM | 79.4 nM
46 | CC(C)(C)C(=O)Cn1ccnc(NC2CCN(CCOc3ccccc3)CC2)c1=O [Compound 5-5] | 7.94 nM | > 10 µM | 158 nM
47 | CC(C)(C)C(=O)Cn1ccnc(NC2CCN(CCOc3ccccc3)CC2)c1=O [Compound 5-6] | 10 nM | – | 200 nM
48 | O=C(Cn1ccnc(NC2CCN(CCOc3ccccc3)CC2)c1=O)NCCc1ccccc1 [Compound 1-15] | 3.16 nM | – | 251 nM
49 | O=C(Cn1ccnc(NC2CCN(CCOc3ccccc3)CC2)c1=O)Nc1ccc(F)cc1 [Compound 1-10] | 3.98 nM | – | 158 nM
